Measured values: the supplement of paper PMC10307832

Key:
Assay in all cases: relative viability (nuclei count vs DMSO), 5 days (fraction); higher = more cells survive
[1] = compound: CCN1C(=O)C2=CC(=C(N=C2N(C1=O)C3CC3)N)C(=O)N + CC(C)C[C@H](NC(=O)[C@H](Cc1ccccc1)NC(=O)c1cnccn1)B(O)O [Bortezomib] (partner 0.002 µM)
Outline: (§1)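 Each reported value is a median over duplicate plates. It expresses relative viability: treated-well nuclei count divided by vehicle-well nuclei count. Lung cancer cell lines in 1536-well plates were dosed by pin tool a day after seeding, alone with one drug or with a fixed anchor-drug dose plus five library-drug doses (not always all listed) in √10 steps, and nuclei were counted after 5 days.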

[2] = compound: CCN1C(=O)C2=CC(=C(N=C2N(C1=O)C3CC3)N)C(=O)N + NC(=O)Nc1cc(-c2cccc(F)c2)sc1C(=O)N[C@H]1CCCNC1 [AZD7762] (partner 0.2 µM)
Outline: as §1

[3] = compound: CCN1C(=O)C2=CC(=C(N=C2N(C1=O)C3CC3)N)C(=O)N + C[C@]1(O)C[C@@H](c2nc(-c3ccc4ccc(-c5ccccc5)nc4c3)c3c(N)nccn32)C1 [Linsitinib] (partner 1 µM)
Outline: as §1

[4] = compound: CCN1C(=O)C2=CC(=C(N=C2N(C1=O)C3CC3)N)C(=O)N + Nc1ncn([C@H]2C[C@H](O)[C@@H](CO)O2)c(=O)n1 [Decitabine] (partner 2 µM)
Outline: as §1

[5] = compound: CCN1C(=O)C2=CC(=C(N=C2N(C1=O)C3CC3)N)C(=O)N + N=C(N)NC(=N)NCCc1ccccc1 [Phenformin] (partner 250 µM)
Outline: as §1

Cell Line | relative viability ([1]; first compound 0.253 µM) | relative viability ([1]; first compound 0.8 µM) | relative viability ([1]; first compound 2.53 µM) | relative viability ([1]; first compound 8 µM) | relative viability ([2]; first compound 0.253 µM) | relative viability ([2]; first compound 0.8 µM) | relative viability ([2]; first compound 2.53 µM) | relative viability ([2]; first compound 8 µM) | relative viability ([3]; first compound 0.253 µM) | relative viability ([3]; first compound 0.8 µM) | relative viability ([3]; first compound 2.53 µM) | relative viability ([3]; first compound 8 µM) | relative viability ([4]; first compound 0.253 µM) | relative viability ([4]; first compound 0.8 µM) | relative viability ([4]; first compound 2.53 µM) | relative viability ([4]; first compound 8 µM) | relative viability ([5]; first compound 0.253 µM) | relative viability ([5]; first compound 0.8 µM) | relative viability ([5]; first compound 2.53 µM) | relative viability ([5]; first compound 8 µM)
LCLC-103H | 1.07 | 0.981 | 1.05 | 1.05 | 0.76 | 0.83 | 0.768 | 0.838 | 1.13 | 1.03 | 1.07 | 1.01 | 0.723 | 0.699 | 0.753 | 0.702 | 0.341 | 0.305 | 0.291 | 0.364
LOU-NH91 | 0.565 | 0.502 | 0.516 | 0.496 | 0.786 | 0.73 | 0.725 | 0.749 | 1.04 | 0.951 | 0.96 | 0.879 | 0.849 | 0.781 | 0.768 | 0.798 | 0.466 | 0.645 | 0.822 | 0.694
LU99A | 1.25 | 1.16 | 1.06 | 1.19 | 0.356 | 0.377 | 0.304 | 0.348 | 0.594 | 0.578 | 0.51 | 0.626 | 0.765 | 0.952 | 0.873 | 0.828 | 0.778 | 0.915 | 0.77 | 0.72
LXF-289 | 0.987 | 0.997 | 0.966 | 0.994 | 1.12 | 1.17 | 1.08 | 1.07 | 0.968 | 0.96 | 0.833 | 0.958 | 0.345 | 0.37 | 0.346 | 0.336 | 0.519 | 0.552 | 0.519 | 0.538
NCI-H23 | 1.02 | 1.03 | 1.08 | 0.956 | 0.272 | 0.208 | 0.284 | 0.2 | 0.602 | 0.61 | 0.56 | 0.565 | 0.315 | 0.305 | 0.289 | 0.32 | 0.789 | 0.768 | 0.749 | 0.675
NCI-H322M | 1.25 | 0.701 | 1.25 | 1.14 | 0.611 | 0.548 | 0.551 | 0.599 | 0.89 | 0.9 | 0.865 | 0.914 | 0.697 | 0.728 | 0.673 | 0.719 | 0.822 | 0.736 | 0.75 | 0.868
NCI-H441 | 0.464 | 0.421 | 0.456 | 0.775 | 0.892 | 1.29 | 1.2 | 1.1 | 0.49 | 0.545 | 0.697 | 0.53 | 0.305 | 0.244 | 0.265 | 0.258 | 0.762 | 0.85 | 0.78 | 0.833
NCI-H460 | 1.16 | 1.03 | 0.983 | 1.23 | 0.609 | 0.572 | 0.57 | 0.586 | 0.927 | 0.806 | 0.71 | 0.71 | 0.454 | 0.462 | 0.524 | 0.301 | 0.519 | 0.571 | 0.476 | 0.499
